A value given as a limit tells only on which side of the number the result lay.

As usually defined, the IC50 is the concentration that gives 50% inhibition.

The first experiment has as its system human primary T-cells, IL-2 stimulated proliferation (JAK-1 and JAK-3 dependent; reported as JAK3 activity). The experiment can be described thus: Human primary T-cell proliferation stimulated by IL-2 (Example 3). It is filed as cell-based. To be noted: Homo sapiens, T-cell, tested under conditions described in Example 3 (IL-2 stimulated human primary T-cell proliferation); read-out: ability to inhibit JAK3 activity, IC50 range (Table V). Summed up: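 Peripheral-blood human T-cells pre-activated via TCR/CD28, IL-2-starved overnight, then cultured 72 h at 37 °C with compound in Yssel's medium containing IL-2 (80 U/mL in cell suspension). Proliferation read as viable-cell ATP by CellTiter-Glo luminescence; reduction versus control taken as JAK pathway inhibition.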
Regarding `CCN(CC)C1CCN(C(C)c2ccc(Nc3ncc(C)c(Nc4ccc5oc(=O)[nH]c5c4)n3)cc2)C1` (stereo not shown) [Compound I-205, 5-(2-(4-(1-(3-(diethylamino)pyrrolidin-1-yl)ethyl)phenylamino)-5-methylpyrimidin-4-ylamino)benzo[d]oxazol-2(3H)-one], the half-maximal inhibitory concentration (IC50) was less than 500 nM.

For `Cc1cnc(Nc2ccc(N3CCN(C)CC3)nc2)nc1Nc1ccc2oc(=O)n(C)c2c1` [II-22, N2-(6-(4-methylpiperazin-1-yl)pyridin-3-yl)-N4-(3-methyl-2-oxo-2,3-dihydrobenzo[d]oxazol-5-yl)-5-methylpyrimidine-2,4-diamine], the concentration for half-maximal inhibition (IC50) is less than 500 nM.

As to `COc1cc(Nc2ncc(C)c(Nc3ccc4oc(=O)[nH]c4c3)n2)cc(C(=O)N2CCOCC2)c1` [Compound I-254, 5-(2-(3-methoxy-5-(morpholine-4-carbonyl)phenylamino)-5-methylpyrimidin-4-ylamino)benzo[d]oxazol-2(3H)-one], the IC50 was less than 500 nM.

`Cc1cnc(Nc2ccc3c(c2)CNC3)nc1Nc1ccc2oc(=O)[nH]c2c1` [III-1, N4-(benzo[d]oxazol-2(3H)-on-5-yl)-N2-(isoindolin-5-yl)-5-methylpyrimidine-2,4-diamine]: the 50% inhibitory concentration (IC50) is less than 500 nM.

`Cc1cnc(Nc2cnc(N3CCN(C)CC3)c(C(F)(F)F)c2)nc1Nc1ccc2oc(=O)[nH]c2c1` [II-39, N4-(benzo[d]oxazolin-2(3H)-on-5-yl)-N2-[3-trifluoromethyl-2-(4-methylpiperazin-1-yl)pyridin-5-yl]-5-methylpyrimidine-2,4-diamine]: the IC50 is less than 500 nM.

For the molecule `Cc1cnc(Nc2ccc(N3CCN(C(=O)OC(C)(C)C)[C@@H](C)C3)nc2)nc1Nc1ccc2oc(=O)[nH]c2c1` [II-41, (S)-2-Methyl-4-{5-[5-methyl-4-(2-oxo-2,3-dihydro-benzooxazol-5-ylamino)-pyrimidin-2-ylamino]-pyridin-2-yl}-piperazine-1-carboxylic acid tert-butyl ester], the IC50 was less than 500 nM.

`Cc1cnc(Nc2ccc(C(=O)NC3CC3)c(C(F)(F)F)c2)nc1Nc1ccc2oc(=O)[nH]c2c1` [Compound I-223, N-cyclopropyl-4-(5-methyl-4-(2-oxo-2,3-dihydrobenzo[d]oxazol-5-ylamino)pyrimidin-2-ylamino)-2-(trifluoromethyl)benzamide]: the IC50 is less than 500 nM.

On to `CCN1CC2CN(c3ncc(Nc4ncc(C)c(Nc5ccc6oc(=O)[nH]c6c5)n4)cc3C(F)(F)F)CC2C1` (stereo not shown) [II-119, N2-[2-(3-ethyl-3,7-diazabicyclo[3.3.0]octan-7-yl)-3-trifluoromethylpyridin-5-yl]-5-methyl-N4-(2-oxo-2,3-dihydro-1,3-benzoxazol-5-yl)-2,4-pyrimidinediamine], for which the half-inhibitory concentration (IC50) is less than 500 nM.

As to `Cc1cnc(Nc2ccc3ccncc3c2)nc1Nc1ccc2oc(=O)[nH]c2c1` [IV-57, 5-[2-(Isoquinolin-7-ylamino)-5-methyl-pyrimidin-4-ylamino]-3H-benzooxazol-2-one], the half-maximal inhibitory concentration (IC50) was more than 10000 nM.

As for `Cc1cnc(Nc2cc(OCC3CCC3)cc(C(F)(F)F)c2)nc1Nc1ccc2oc(=O)[nH]c2c1` [Compound I-227, 5-(2-(3-(cyclobutylmethoxy)-5-(trifluoromethyl)phenylamino)-5-methylpyrimidin-4-ylamino)benzo[d]oxazol-2(3H)-one], the 50% inhibitory concentration (IC50) was in the range of 500 to 5000 nM.

As to `Cc1cnc(Nc2cnc(N3CCN(C)CC3)c(Cl)c2)nc1Nc1ccc2oc(=O)[nH]c2c1` [II-116, N2-[3-chloro-2-(4-methylpiperazino)pyridin-5-yl]-5-methyl-N4-(2-oxo-2,3-dihydro-1,3-benzoxazol-5-yl)-2,4-pyrimidinediamine], the IC50 is less than 500 nM.

As to `CCN1CCN(c2ccc(Nc3ncc(C)c(Nc4ccc5oc(=O)[nH]c5c4)n3)cc2C(F)(F)F)CC1` [Compound I-110, N4-(benzoxazolin-2-on-5-yl)-N2-[3-trifluoromethyl-4-(4-ethylpiperazin-1-yl)phenyl]-5-methylpyrimidine-2,4-diamine], the 50% inhibitory concentration (IC50) is less than 500 nM.

For the molecule `Cc1cnc(Nc2ccc(N3CCC(F)(F)CC3)nc2)nc1Nc1ccc2oc(=O)[nH]c2c1` [II-59, 5-(2-(6-(4,4-difluoropiperidin-1-yl)pyridin-3-ylamino)-5-methylpyrimidin-4-ylamino)benzo[d]oxazol-2(3H)-one], the 50% inhibitory concentration (IC50) was less than 500 nM.

`COCCN1C(=O)COc2cc(Nc3ncc(C)c(Nc4ccc5oc(=O)[nH]c5c4)n3)ccc21` [IV-44, N2-[4-(2-methoxyethyl)-2H-1,4-benzoxazin-3 (4H)-one-7-yl]-5-methyl-N4-(2-oxo-2,3-dihydro-1,3-benzoxazol-5-yl)-2,4-pyrimidinediamine]: the IC50 was less than 500 nM.

As to `Cc1cnc(Nc2cccc(C(C)N3CCCC3)c2)nc1Nc1ccc2oc(=O)[nH]c2c1` (stereo not shown) [Compound I-212, 5-(5-methyl-2-(3-(1-(pyrrolidin-1-yl)ethyl)phenylamino)pyrimidin-4-ylamino)benzo[d]oxazol-2(3H)-one], the 50% inhibitory concentration (IC50) was less than 500 nM.

With `COC(=O)N1C2CCC1CC(c1ncc(Nc3ncc(C)c(Nc4ccc5oc(=O)[nH]c5c4)n3)cc1C)C2` (stereo not shown) [II-68, methyl 3-(3-methyl-5-(5-methyl-4-(2-oxo-2,3-dihydrobenzo[d]oxazol-5-ylamino)pyrimidin-2-ylamino)pyridin-2-yl)-8-azabicyclo[3.2.1]octane-8-carboxylate], the IC50 was less than 500 nM.

The experiment is the same for the next values; noted with them: tested under conditions described in Example 3 (IL-2 stimulated human primary T-cell proliferation); read-out: ability to inhibit JAK3 activity, IC50 range (Table V).
Take `Cc1cnc(Nc2ccc(F)c(NS(C)(=O)=O)c2)nc1Nc1ccc2oc(=O)n(C)c2c1` [Compound I-88, N2-((4-fluoro-3-methylsulfonylamino)phenyl)-N4-(3-methyl-2-oxo-2,3-dihydrobenzo[d]oxazol-5-yl)-5-methylpyrimidine-2,4-diamine]: the concentration for half-maximal inhibition (IC50) was less than 500 nM.

With `Cc1cnc(Nc2ccc(N3CCN(C)CC3)c(F)c2)nc1Nc1ccc2oc(=O)[nH]c2c1` [Compound I-281, N2-[3-fluoro-4-(4-methylpiperazino)]phenyl-5-methyl-N4-(2-oxo-2,3-dihydro-1,3-benzoxazol-5-yl)-2,4-pyrimidinediamine], the IC50 is less than 500 nM.

Turning to `Cc1cnc(Nc2ccc(NS(C)(=O)=O)cc2)nc1Nc1ccc2oc(=O)[nH]c2c1` [Compound I-52], the IC50 was less than 500 nM.

Take `Cc1cnc(Nc2ccc(N3CCC(NC(=O)C(C)(C)C)C3)nc2)nc1Nc1ccc2oc(=O)[nH]c2c1` (stereo not shown) [II-102, N-(1-(5-(5-methyl-4-(2-oxo-2,3-dihydrobenzo[c]oxazol-5-ylamino)pyrimidin-2-ylamino)pyridin-2-yl)pyrrolidin-3-yl)pivalamide]: the IC50 is less than 500 nM.

For `Cc1cnc(Nc2cc(F)cc(OC(C)(C)C(N)=O)c2)nc1Nc1ccc2oc(=O)[nH]c2c1` [Compound I-402, N2-[3-(1-aminocarbonyl-1-methyl)ethoxy-5-fluoro]phenyl-5-methyl-N4-(2-oxo-2,3-dihydro-1,3-benzoxazol-5-yl)-2,4-pyrimidinediamine], the half-maximal inhibitory concentration (IC50) is less than 500 nM.

On to `COc1ccc(Nc2ncc(C)c(Nc3ccc4oc(=O)[nH]c4c3)n2)cc1C#N` [Compound I-373, N2-(3-cyano-4-methoxy)phenyl-5-methyl-N4-(2-oxo-2,3-dihydro-1,3-benzoxazol-5-yl)-2,4-pyrimidinediamine], for which the IC50 is less than 500 nM.

As to `COC(=O)COc1cccc(Nc2ncc(C)c(Nc3ccc4oc(=O)[nH]c4c3)n2)c1` [Compound I-305, N2-(3-methoxycarbonylmethoxy)phenyl-5-methyl-N4-(2-oxo-2,3-dihydro-1,3-benzoxazol-5-yl)-2,4-pyrimidinediamine], the IC50 was 500 to 5000 nM.

On to `Cc1cnc(Nc2cccc(C#N)c2)nc1Nc1ccc2[nH]c(=O)[nH]c2c1` [Compound I-28, N4-(benzimidazolin-2-on-5-yl)-N2-(3-cyanophenyl)-5-methylpyrimidine-2,4-diamine], for which the IC50 was less than 500 nM.

In the case of `Cn1c(=O)n(C)c2cc(Nc3nc(Nc4ccc(S(N)(=O)=O)cc4)ncc3F)ccc21` [Compound I-40, N4-(1,3-dimethylbenzimidazolin-2-on-5-yl)-N2-((4-aminosulfonyl)phenyl)-5-fluoropyrimidine-2,4-diamine], the half-inhibitory concentration (IC50) was more than 10000 nM.

Consider `CCCN1CCN(c2cc(Nc3ncc(C)c(Nc4ccc5oc(=O)[nH]c5c4)n3)ccc2C(F)(F)F)CC1` [Compound I-285, 5-methyl-N4-(2-oxo-2,3-dihydro-1,3-benzoxazol-5-yl)-N2-[3-(4-propylpiperazino)-4-trifluoromethyl]phenyl-2,4-pyrimidinediamine], for which the IC50 is less than 500 nM.

As to `Cc1cc(Nc2ncc(C)c(Nc3ccc4oc(=O)[nH]c4c3)n2)cc(OC(F)(F)F)c1` [Compound I-379, 5-methyl-N2-(3-methyl-5-trifluoromethoxy)phenyl-N4-(2-oxo-2,3-dihydro-1,3-benzoxazol-5-yl)-2,4-pyrimidinediamine], the IC50 was less than 500 nM.

On to `Cc1cc(Nc2ncc(C)c(Nc3ccc4oc(=O)[nH]c4c3)n2)ccc1OC(F)F` [Compound I-387, N2-(4-difluoromethoxy-3-methyl)phenyl-5-methyl-N4-(2-oxo-2,3-dihydro-1,3-benzoxazol-5-yl)-2,4-pyrimidinediamine], for which the IC50 was less than 500 nM.

Take `Cc1cnc(Nc2cccc(F)c2)nc1Nc1ccc2oc(=O)[nH]c2c1` [Compound I-368, N2-(3-fluoro)phenyl-5-methyl-N4-(2-oxo-2,3-dihydro-1,3-benzoxazol-5-yl)-2,4-pyrimidinediamine]: the half-inhibitory concentration (IC50) is less than 500 nM.

As to `Cc1cnc(Nc2ccc3c(c2)OC2(CCCCC2)O3)nc1Nc1ccc2oc(=O)[nH]c2c1` [IV-39, N2-[spiro(2,1′-cyclohexan)-1,3-benzodioxol-5-yl]-5-methyl-N4-(2-oxo-2,3-dihydro-1,3-benzoxazol-5-yl)-2,4-pyrimidinediamine], the IC50 is less than 500 nM.

Turning to `Cc1cnc(Nc2cccc(S(C)(=O)=O)c2)nc1Nc1ccc2[nH]c(=O)oc2c1` [Compound I-100, N2-((3-methylsulfonyl)phenyl)-N4-(2-oxo-2,3-dihydrobenzo[d]oxazol-6-yl)-5-methylpyrimidine-2,4-diamine], the half-maximal inhibitory concentration (IC50) was less than 500 nM.

For the origin of these results see patent US10005767B2, “Compositions and methods for inhibition of the JAK pathway” (Rigel Pharmaceuticals, Inc., priority 2009, dated 2018).
